Data: patent US4102994A, “Aliphatic amido-quaternary ammonium anti-microbial compounds” (Colgate-Palmolive Company, priority 1977, dated 1978)
Where two headings read alike, the source gives them in different places.

Columns and labels:
T. mentagrophytes = experiment: Test tube serial dilution test (minimal inhibitory concentration); assay type: cell-based, Trichophyton mentogrophytes; conditions: Trichophyton mentagrophytes
Description: (§1) The anti-microbial nature of the instant novel compounds was shown by a standard test tube serial dilution test in which an appropriate number of test tubes of broth containing decreasing concentrations of the test agent was innoculated with the test organism. After a suitable period of incubation, the tubes were examined for the presence or absence of growth. The activity of the test agent was the lowest concentration which inhibited the growth of the organism and is expressed as the minimal inhibitory concentration in ppm. As shown in the following table of antimicrobial data, a definite break occurs between compounds wherein R^4 contains 8 carbons and 10 carbons.

S. aureus = experiment: as above; assay type: cell-based; conditions: Staphylococcus aureus
Description: as §1

E. coli = experiment: as above; assay type: cell-based; conditions: Escherichia coli
Description: as §1

Str. mitis = experiment: as above; assay type: cell-based; conditions: Streptococcus mitis
Description: as §1

C. albicans = experiment: as above; assay type: cell-based; conditions: Candida albicans
Description: as §1

dental calculus = experiment: Dental calculus inhibition in rats on Zipkin-McClure calculus producing diet, Baer's method; assay type: in vivo, littermated albino rats; conditions: .1% test solution, teeth swabbed thirty seconds each day for six weeks, vs water control, 99% significant
Text: The quaternary ammonium amides of adamantanecarboxylic acid are particularly effective in inhibiting the development of dental calculus as shown by the results of tests on littermated albino rats, in groups of 15 males and 15 females who were fed a Zipkin-McClure calculus producing diet. For six weeks the teeth of each animal were swabbed for thirty seconds each day with a test solution or water for the control group. The animals were then sacrificed, defleshed and scored by Baer's method for calculus. The results were analyzed by Student's "t" test and in the results quoted were 99% significant.

A. niger = experiment: Test tube serial dilution test (minimal inhibitory concentration); assay type: cell-based; conditions: Aspergillus niger, broth serial dilution, read-out: Minimum Inhibitory Concentration
Description: as §1

A. naeslundii = experiment: as above; assay type: cell-based, Actinomycetes naeslundii; conditions: Actinomyces naeslundii, broth serial dilution, read-out: Minimum Inhibitory Concentration
Description: as §1

Str. sanguis = experiment: as above; assay type: cell-based; conditions: Streptococcus, broth serial dilution, read-out: Minimum Inhibitory Concentration
Description: as §1

Str. mutans = experiment: as above; assay type: cell-based; conditions: Streptococcus mutans, broth serial dilution, read-out: Minimum Inhibitory Concentration
Description: as §1

P. aeruginosa = experiment: as above; assay type: cell-based; conditions: Pseudomonas aeruginosa, broth serial dilution, read-out: Minimum Inhibitory Concentration
Description: as §1

[1] = Table III, no quantity or unit printed in the table, minimal inhibitory concentration in ppm, read-out: antimicrobial results, T.mentagrophytes (Table III)
[2] = read-out: antimicrobial results, S.aureus (Table III)
[3] = Table III, no quantity or unit printed in the table, minimal inhibitory concentration in ppm, read-out: antimicrobial results, E.coli (Table III)
[4] = Table III, no quantity or unit printed in the table, minimal inhibitory concentration in ppm, read-out: antimicrobial results, S.mitis (Table III)
[5] = Table III, no quantity or unit printed in the table, minimal inhibitory concentration in ppm, read-out: antimicrobial results, C.albicans (Table III)
[6] = T. mentagrophytes, broth serial dilution, read-out: Minimum Inhibitory Concentration
[7] = S. aureus, broth serial dilution, read-out: Minimum Inhibitory Concentration
[8] = E. coli, broth serial dilution, read-out: Minimum Inhibitory Concentration
[9] = Str. mitis, broth serial dilution, read-out: Minimum Inhibitory Concentration
[10] = C. albicans, broth serial dilution, read-out: Minimum Inhibitory Concentration

SMILES: CCCCCCCCCCCC[N+](C)(C)CCCNC(=O)C(CC)CCCC (centres unmarked) [R *C7 branch, R^4 C12, X I]
- MIC (T. mentagrophytes; [1]): 12.5 µg/mL
- MIC (S. aureus; [2]): 1.56 µg/mL
- MIC (E. coli; [3]): 50 µg/mL
- MIC (Str. mitis; [4]): 3.12 µg/mL
- MIC (C. albicans; [5]): 3.12 µg/mL

SMILES: CCCCCCCCCCCCCC[N+](C)(C)CCCNC(=O)CCCCCCCC.[Cl-] [R C8, R^4 C14, X Cl, 3-Nonaneamidopropyldimethyltetradecyl ammonium chloride]
- MIC (T. mentagrophytes; [1]): 3.12 µg/mL
- MIC (S. aureus; [2]): 1.56 µg/mL
- MIC (E. coli; [3]): 100 µg/mL
- MIC (Str. mitis; [4]): 0.78 µg/mL
- MIC (C. albicans; [5]): 1.56 µg/mL

SMILES: CCCCCCCCCCCCCC[N+](C)(C)CCCNC(=O)CCCCCCC.[Cl-] [R C7, R^4 C14, X Cl, 3-Octaneamidopropyldimethyltetradecyl ammonium chloride]
- MIC (T. mentagrophytes; [1]): 3.12 µg/mL
- MIC (S. aureus; [2]): 0.78 µg/mL
- MIC (E. coli; [3]): 50 µg/mL
- MIC (Str. mitis; [4]): 1.56 µg/mL
- MIC (C. albicans; [5]): 3.12 µg/mL

SMILES: CCCCCCCCCCCCCC[N+](C)(C)CCCNC(=O)C12CC3CC(CC(C3)C1)C2 [Comp.10, 3-(1'-adamantanecarboxamido)propyldimethyltetradecyl ammonium bromide]
- Calculus Reduction, Females (dental calculus; females): 6.27%
- Calculus Reduction, Males (dental calculus; males): 43.43%
- MIC (T. mentagrophytes; [6]): 25 µg/mL
- MIC (S. aureus; [7]): 0.39 µg/mL
- MIC (E. coli; [8]): 25 µg/mL
- MIC (A. niger): 50 µg/mL
- MIC (Str. mitis; [9]): 0.39 µg/mL
- MIC (C. albicans; [10]): 6.25 µg/mL

SMILES: CCCCCCCCCCCC[N+](C)(C)CCCNC(=O)CCCCCCCC [R C8, R^4 C12, X I]
- MIC (T. mentagrophytes; [1]): 12.5 µg/mL
- MIC (S. aureus; [2]): 0.78 µg/mL
- MIC (E. coli; [3]): 12.5 µg/mL
- MIC (Str. mitis; [4]): 1.56 µg/mL
- MIC (C. albicans; [5]): 1.56 µg/mL

SMILES: CCCCCCCCCCCCCC[N+](C)(C)CCCNC(=O)CCCCCCCCCCC.[Cl-] [R C11, R^4 C14, X Cl, 3-Dodecaneamidopropyldimethyltetradecyl ammonium chloride]
- MIC (T. mentagrophytes; [1]): 25 µg/mL
- MIC (S. aureus; [2]): 6.25 µg/mL
- MIC (E. coli; [3]): 100 µg/mL
- MIC (Str. mitis; [4]): 12.5 µg/mL
- MIC (C. albicans; [5]): 25 µg/mL

SMILES: CCCCCCCCCCCC[N+](CC)(CC)CCNC(=O)C12CC3CC(CC(C3)C1)C2 [R^4 =C12 H25]
- MIC (T. mentagrophytes; [6]): 3.12 µg/mL
- MIC (A. naeslundii): 0.39 µg/mL
- MIC (Str. sanguis): 3.12 µg/mL
- MIC (S. aureus; [7]): 1.56 µg/mL
- MIC (Str. mutans): 0.78 µg/mL
- MIC (A. niger): 12.5 µg/mL
- MIC (C. albicans; [10]): 1.56 µg/mL

SMILES: CCCCCCCCCCCC[N+](C)(C)CCCNC(=O)C12CC3CC(CC(C3)C1)C2 [Comp.9, 3-(1'-adamantanecarboxamido)propyldimethyldodecyl ammonium bromide]
- MIC (T. mentagrophytes; [6]): 12.5 µg/mL
- MIC (S. aureus; [7]): 0.78 µg/mL
- MIC (E. coli; [8]): 50 µg/mL
- MIC (A. niger): 25 µg/mL
- MIC (Str. mitis; [9]): 0.39 µg/mL
- MIC (C. albicans; [10]): 6.25 µg/mL

SMILES: CCCCCCCCCCCCCC[N+](C)(C)CCCNC(=O)C1CC2CCC1C2 (centres unmarked) [Comp.16, 3-(2'-norbornanecarboxamido)propyltetradecyldimethyl ammonium bromide]
- MIC (T. mentagrophytes; [6]): 6.25 µg/mL
- MIC (A. naeslundii): 0.1 µg/mL
- MIC (Str. sanguis): 1.56 µg/mL
- MIC (S. aureus; [7]): 1.56 µg/mL
- MIC (Str. mutans): 0.1 µg/mL
- MIC (E. coli; [8]): 50 µg/mL
- MIC (A. niger): 25 µg/mL
- MIC (C. albicans; [10]): 3.12 µg/mL
- MIC (P. aeruginosa): 50 µg/mL

SMILES: CCCCCCCCCCCCCC[N+](C)(C)CCCNC(=O)CCCCCCCCC.[Cl-] [R C9, R^4 C14, X Cl, 3-Decaneamidopropyldimethyltetradecyl ammonium chloride]
- MIC (T. mentagrophytes; [1]): 6.25 µg/mL
- MIC (S. aureus; [2]): 3.12 µg/mL
- MIC (E. coli; [3]): 100 µg/mL
- MIC (Str. mitis; [4]): 6.25 µg/mL
- MIC (C. albicans; [5]): 3.12 µg/mL

SMILES: CCCCCCCCCCCC[N+](C)(C)CCCNC(=O)[C@H]1CC[C@@H]2CCC[C@@H]21 (relative stereo) [Comp.15]
- MIC (T. mentagrophytes; [6]): 6.25 µg/mL
- MIC (A. naeslundii): 0.19 µg/mL
- MIC (Str. sanguis): 3.12 µg/mL
- MIC (S. aureus; [7]): 1.56 µg/mL
- MIC (Str. mutans): 0.1 µg/mL
- MIC (E. coli; [8]): 25 µg/mL
- MIC (A. niger): 25 µg/mL
- MIC (C. albicans; [10]): 3.12 µg/mL
- MIC (P. aeruginosa): 25 µg/mL

SMILES: CCCCCCCCCCCC(=O)NCCC[N+](C)(C)C [R C11, R^4 C1, X I, reference compound]
- MIC (T. mentagrophytes; [1]): 50 µg/mL
- MIC (S. aureus; [2]): 50 µg/mL
- MIC (E. coli; [3]): 50 µg/mL
- MIC (Str. mitis; [4]): 50 µg/mL
- MIC (C. albicans; [5]): 50 µg/mL

SMILES: CCCCCCCCCC[N+](C)(C)CCCNC(=O)CCCCCCC.[I-] [Comp.3, 3-Octaneamidopropyldimethyldecyl ammonium iodide]
- MIC (T. mentagrophytes; [6]): 12.5 µg/mL
- MIC (A. naeslundii): 12.5 µg/mL
- MIC (Str. sanguis): 6.25 µg/mL
- MIC (S. aureus; [7]): 12.5 µg/mL
- MIC (Str. mutans): 0.78 µg/mL
- MIC (E. coli; [8]): 50 µg/mL
- MIC (A. niger): 25 µg/mL
- MIC (C. albicans; [10]): 6.25 µg/mL
- MIC (P. aeruginosa): 25 µg/mL

SMILES: CCCCCCCCCCCCCC[N+](C)(C)CCCNC(=O)[C@H]1CC[C@@H]2CCC[C@@H]21 (relative stereo) [Comp.14, 3-(exo,cis-Bicyclooctane-2-carboxamido)propyltetradecyl dimethyl ammonium bromide]
- MIC (T. mentagrophytes; [6]): 3.12 µg/mL
- MIC (A. naeslundii): < 0.05 µg/mL
- MIC (Str. sanguis): 6.25 µg/mL
- MIC (S. aureus; [7]): 0.78 µg/mL
- MIC (Str. mutans): < 0.05 µg/mL
- MIC (E. coli; [8]): 50 µg/mL
- MIC (A. niger): 25 µg/mL
- MIC (C. albicans; [10]): 3.12 µg/mL
- MIC (P. aeruginosa): 50 µg/mL

SMILES: CCCCCCCCCC[N+](CC)(CC)CCNC(=O)C12CC3CC(CC(C3)C1)C2 [R^4 =C10 H21]
- MIC (T. mentagrophytes; [6]): 50 µg/mL
- MIC (A. naeslundii): 1.56 µg/mL
- MIC (Str. sanguis): 6.25 µg/mL
- MIC (S. aureus; [7]): 3.12 µg/mL
- MIC (Str. mutans): 6.25 µg/mL
- MIC (A. niger): 50 µg/mL
- MIC (C. albicans; [10]): 6.25 µg/mL

SMILES: CCCCCC[N+](CC)(CC)CCNC(=O)C12CC3CC(CC(C3)C1)C2 [R^4 =C6 H13, reference compound]
- MIC (T. mentagrophytes; [6]): 50 µg/mL
- MIC (A. naeslundii): 50 µg/mL
- MIC (Str. sanguis): 50 µg/mL
- MIC (S. aureus; [7]): 100 µg/mL
- MIC (Str. mutans): 100 µg/mL
- MIC (A. niger): 100 µg/mL
- MIC (C. albicans; [10]): 100 µg/mL

SMILES: CCCCCCCC[N+](CC)(CC)CCNC(=O)C12CC3CC(CC(C3)C1)C2 [R^4 =C8 H17, reference compound]
- MIC (T. mentagrophytes; [6]): 50 µg/mL
- MIC (A. naeslundii): 12.5 µg/mL
- MIC (Str. sanguis): 50 µg/mL
- MIC (S. aureus; [7]): 25 µg/mL
- MIC (Str. mutans): 25 µg/mL
- MIC (A. niger): 100 µg/mL
- MIC (C. albicans; [10]): 50 µg/mL

SMILES: CCCCCCCCCCCCCC[N+](C)(C)CCCNC(=O)C(CC)CCCC (centres unmarked) [R *C7 (branch), R^4 C14, X Cl]
- MIC (T. mentagrophytes; [1]): 6.25 µg/mL
- MIC (S. aureus; [2]): 0.78 µg/mL
- MIC (E. coli; [3]): 50 µg/mL
- MIC (Str. mitis; [4]): 1.56 µg/mL
- MIC (C. albicans; [5]): 3.12 µg/mL

SMILES: CCCC[N+](CC)(CC)CCNC(=O)C12CC3CC(CC(C3)C1)C2 [R^4 =C4 H9, reference compound]
- MIC (T. mentagrophytes; [6]): 50 µg/mL
- MIC (A. naeslundii): 100 µg/mL
- MIC (Str. sanguis): 50 µg/mL
- MIC (S. aureus; [7]): 100 µg/mL
- MIC (Str. mutans): 100 µg/mL
- MIC (A. niger): 100 µg/mL
- MIC (C. albicans; [10]): 100 µg/mL
